Source: US20100331315A1, “RHODANINES AND RELATED HETEROCYCLES AS KINASE INHIBITORS” (priority 2009, published 2010)
Each block holds one compound with its values, some of them ahead of it.

Assays:
[1] = system: leukemic cells from AML patients; conditions: Fedorov et al., PNAS 104(51); cited from earlier work
[2] = system: HCT-116 human colorectal carcinoma cells; assay: Alamar Blue cell proliferation assay, HCT-116; format: cell-based; conditions: HCT-116, Table 1, read-out: AB: HCT-116 IC50
Protocol: A representative cell-proliferation assay protocol using Alamar Blue dye (stored at 4° C., use 20 ul per well) is described hereafter.
a. Split and trypsinize cells.
b. Count cells using hemocytometer.
c. Plate 4,000-5,000 cells per well in 100 μl of medium and seed into a 96-well plate according to the following plate layout. Add cell culture medium only to wells B10 to B12. Wells B1 to B9 have cells but no compound added.
d. Add 100 μl of 2× drug dilution to each well in a concentration shown in the plate layout above. At the same time, add 100 μl of media into the control wells (wells B10 to B12). Total volume is 200 μl/well.
e. Incubate four (4) days at 37° C., 5% CO2 in a humidified incubator.
f. Add 20 μl Alamar Blue reagent to each well.
g. Incubate for four (4) hours at 37° C., 5% CO2 in a humidified incubator.
h. Record fluorescence at an excitation wavelength of 544 nm and emission wavelength of 590 nm using a microplate reader.
In the assays, cells are cultured with a test compound for approximately four days, the dye is then added to the cells and fluorescence of […] dye is detected after approximately four hours. Different types of cells can be utilized in the assays (e.g., HCT-116 human colorectal carcinoma cells, PC-3 human prostatic cancer cells and MiaPaca human pancreatic carcinoma cells).

[3] = system: MV-4-11; assay: Alamar Blue cell proliferation assay, MV-4-11; format: cell-based; conditions: Homo sapiens, MV4-11, MV-4-11, Table 1, read-out: AB: MV-4-11 IC50
Summary of the method: (§1)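 Cells were seeded at 4,000-5,000 per well and exposed to compound for four days at 37° C under 5% CO2. Alamar Blue was then added for four hours, and fluorescence was read at 544 nm excitation and 590 nm emission against untreated-cell and medium-only controls.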

[4] = system: K-562; assay: Alamar Blue cell proliferation assay, K-562; format: cell-based; conditions: Homo sapiens, K562, K-562, Table 1, read-out: AB: K-562 IC50
Summary of the method: as §1

[5] = system: MOLM-13 (AML) xenograft; conditions: MOLM-13 (AML) xenograft model; 2008 AACR Abstract No. 4974; cited from earlier work
[6] = system: MV-4-11 (AML) xenograft; conditions: MV-4-11 (AML) xenograft model; 2008 AACR Abstract No. 4974; cited from earlier work

SMILES: CN(C)C[C@@H]1CCn2cc(c3ccccc32)C2=C(C(=O)NC2=O)c2cn(c3ccccc23)CCO1 [Ly5333′531]
effect on cell growth and cell death [1]: suppressed cell growth and induced cell death

IC50 [2]: > 10 µM | IC50 [3]: > 10 µM | IC50 [4]: > 10 µM
SMILES: O=C1NC(=S)S/C1=C\c1ccc(-c2cccc(C(=O)O)c2)o1

SMILES: CN1CCC(CNc2ccc3ncc(-c4cccc(OC(F)(F)F)c4)n3n2)CC1 [SGI-1776]
tumor regression [5]: significant tumor regression | tumor regression [6]: significant tumor regression
